In PubChem BioAssay AID2060484 (Molecular Pharmacology Branch, DTP, NCI, 2025):
pIC50: −log10 of the molar value.

System: SUM149PT spheroids with HUVEC/MSC, viability
Experiment: Anticancer human tumor SUM149PT cell line growth inhibition [GQUAD];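 also: spheroids exposed to drugs for seven days before readout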;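 as to viability, T/C: percent viability relative to DMSO vehicle control taken as 100%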
Details: for pIC50: curve of first compound; for viability, T/C: stronger effect = lower value
How it was run: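 Multi-cell-type spheroids of tumor cells with HUVEC and mesenchymal stem cells, treated with drug combinations. Concentrations descend in half-log steps from near clinical Cmax, or from 10 microM where Cmax is unknown; viability read-out.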

[1] = second compound 0.0316 µM, first compound 0.0316 µM
[2] = second compound 0.0316 µM, first compound 0.1 µM
[3] = second compound 0.0316 µM, first compound 0.316 µM
[4] = second compound 0.0316 µM, first compound 1 µM
[5] = second compound 0.0316 µM, first compound 3.16 µM
[6] = second compound 0.0316 µM, first compound 10 µM
[7] = second compound 0.1 µM, first compound 0.0316 µM
[8] = second compound 0.1 µM, first compound 0.1 µM
[9] = second compound 0.1 µM, first compound 0.316 µM
[10] = second compound 0.1 µM, first compound 1 µM
[11] = second compound 0.1 µM, first compound 3.16 µM
[12] = second compound 0.1 µM, first compound 10 µM
[13] = second compound 0.316 µM, first compound 0.0316 µM
[14] = second compound 0.316 µM, first compound 0.1 µM
[15] = second compound 0.316 µM, first compound 0.316 µM
[16] = second compound 0.316 µM, first compound 1 µM
[17] = second compound 0.316 µM, first compound 3.16 µM
[18] = second compound 0.316 µM, first compound 10 µM
[19] = second compound 1 µM, first compound 0.0316 µM
[20] = second compound 1 µM, first compound 0.1 µM
[21] = second compound 1 µM, first compound 0.316 µM
[22] = second compound 1 µM, first compound 1 µM
[23] = second compound 1 µM, first compound 3.16 µM
[24] = second compound 1 µM, first compound 10 µM
[25] = second compound 3.16 µM, first compound 0.0316 µM
[26] = second compound 3.16 µM, first compound 0.1 µM
[27] = second compound 3.16 µM, first compound 0.316 µM
[28] = second compound 3.16 µM, first compound 1 µM
[29] = second compound 3.16 µM, first compound 3.16 µM
[30] = second compound 3.16 µM, first compound 10 µM
[31] = second compound 10 µM, first compound 0.0316 µM
[32] = second compound 10 µM, first compound 0.1 µM
[33] = second compound 10 µM, first compound 0.316 µM
[34] = second compound 10 µM, first compound 1 µM
[35] = second compound 10 µM, first compound 3.16 µM
[36] = second compound 10 µM, first compound 10 µM

C#Cc1c(F)ccc2cc(O)cc(-c3ncc4c(N5CC6CCC(C5)N6)nc(OCC56CCCN5CC(F)C6)nc4c3F)c12 (stereo not given) + Cc1cnc(CNC(=O)c2c(=O)c3ccc(N4CCCN(C)CC4)nc3n3c2sc2ccccc23)cn1
pIC50 (second compound 0.0316 µM): 6.26 | pIC50 (second compound 0.1 µM): 6.61 | pIC50 (second compound 0.316 µM): 7.37 | pIC50 (second compound 1 µM): > 7.50 | pIC50 (second compound 3.16 µM): > 7.50 | pIC50 (second compound 10 µM): > 7.50 | viability, T/C [1]: 90.1% | viability, T/C [2]: 65.5% | viability, T/C [3]: 66.2% | viability, T/C [4]: 35.1% | viability, T/C [5]: 36.6% | viability, T/C [6]: 29% | viability, T/C [7]: 51.6% | viability, T/C [8]: 61.4% | viability, T/C [9]: 45.2% | viability, T/C [10]: 38.9% | viability, T/C [11]: 30.7% | viability, T/C [12]: 25.5% | viability, T/C [13]: 48.6% | viability, T/C [14]: 52.2% | viability, T/C [15]: 37.9% | viability, T/C [16]: 34.1% | viability, T/C [17]: 28.1% | viability, T/C [18]: 22.9% | viability, T/C [19]: 34.1% | viability, T/C [20]: 38.6% | viability, T/C [21]: 33.4% | viability, T/C [22]: 27.1% | viability, T/C [23]: 24.2% | viability, T/C [24]: 20.1% | viability, T/C [25]: 35.5% | viability, T/C [26]: 32.1% | viability, T/C [27]: 31.4% | viability, T/C [28]: 25.6% | viability, T/C [29]: 23.3% | viability, T/C [30]: 19.6% | viability, T/C [31]: 0.13% | viability, T/C [32]: 2.68% | viability, T/C [33]: 11.3% | viability, T/C [34]: 0.63% | viability, T/C [35]: 2.15% | viability, T/C [36]: 0.92%

CC(=O)O[C@H]1C(=O)[C@@]2(C)[C@H]([C@H](OC(=O)c3ccccc3)[C@]3(O)C[C@H](OC(=O)[C@H](O)[C@@H](NC(=O)c4ccccc4)c4ccccc4)C(C)=C1C3(C)C)[C@]1(OC(C)=O)CO[C@@H]1C[C@@H]2O + Cc1cnc(CNC(=O)c2c(=O)c3ccc(N4CCCN(C)CC4)nc3n3c2sc2ccccc23)cn1
pIC50 (second compound 0.0316 µM): > 7.50 | pIC50 (second compound 0.1 µM): > 7.50 | pIC50 (second compound 0.316 µM): > 7.50 | pIC50 (second compound 1 µM): > 7.50 | pIC50 (second compound 3.16 µM): > 7.50 | pIC50 (second compound 10 µM): > 7.50 | viability, T/C [1]: 25.8% | viability, T/C [2]: 16.3% | viability, T/C [3]: 15.5% | viability, T/C [4]: 9.27% | viability, T/C [5]: 11.8% | viability, T/C [6]: 16.7% | viability, T/C [7]: 26.2% | viability, T/C [8]: 26.1% | viability, T/C [9]: 13.4% | viability, T/C [10]: 13.1% | viability, T/C [11]: 14.7% | viability, T/C [12]: 14.5% | viability, T/C [13]: 30.5% | viability, T/C [14]: 30.4% | viability, T/C [15]: 19% | viability, T/C [16]: 14.6% | viability, T/C [17]: 14.8% | viability, T/C [18]: 19% | viability, T/C [19]: 30.9% | viability, T/C [20]: 24.8% | viability, T/C [21]: 18% | viability, T/C [22]: 16.1% | viability, T/C [23]: 15.2% | viability, T/C [24]: 20.7% | viability, T/C [25]: 32.2% | viability, T/C [26]: 24.8% | viability, T/C [27]: 19.1% | viability, T/C [28]: 16.9% | viability, T/C [29]: 18% | viability, T/C [30]: 19.8% | viability, T/C [31]: 0.13% | viability, T/C [32]: 0.61% | viability, T/C [33]: 1.35% | viability, T/C [34]: 0.64% | viability, T/C [35]: 1.28% | viability, T/C [36]: 1.03%

COc1cccc2c1C(=O)c1c(O)c3c(c(O)c1C2=O)CC(O)(C(=O)CO)CC3OC1CC(N)C(O)C(C)O1 (stereo not given) + Cc1cnc(CNC(=O)c2c(=O)c3ccc(N4CCCN(C)CC4)nc3n3c2sc2ccccc23)cn1
pIC50 (second compound 0.0316 µM): 6.95 | pIC50 (second compound 0.1 µM): 7.01 | pIC50 (second compound 0.316 µM): 7.12 | pIC50 (second compound 1 µM): > 7.50 | pIC50 (second compound 3.16 µM): > 7.50 | pIC50 (second compound 10 µM): > 7.50 | viability, T/C [1]: 66.9% | viability, T/C [2]: 48.3% | viability, T/C [3]: 36.2% | viability, T/C [4]: 13.1% | viability, T/C [5]: 1.37% | viability, T/C [6]: 2.54% | viability, T/C [7]: 57.7% | viability, T/C [8]: 47.1% | viability, T/C [9]: 36.3% | viability, T/C [10]: 15.2% | viability, T/C [11]: 1.96% | viability, T/C [12]: 1.69% | viability, T/C [13]: 57.3% | viability, T/C [14]: 45.9% | viability, T/C [15]: 34.1% | viability, T/C [16]: 16.2% | viability, T/C [17]: 2.74% | viability, T/C [18]: 3.01% | viability, T/C [19]: 44.2% | viability, T/C [20]: 43.7% | viability, T/C [21]: 30.1% | viability, T/C [22]: 15.9% | viability, T/C [23]: 0.7% | viability, T/C [24]: 1.88% | viability, T/C [25]: 36.5% | viability, T/C [26]: 35.7% | viability, T/C [27]: 28.9% | viability, T/C [28]: 13% | viability, T/C [29]: 1.22% | viability, T/C [30]: 1.18% | viability, T/C [31]: 0.13% | viability, T/C [32]: 1.99% | viability, T/C [33]: 15.3% | viability, T/C [34]: 0.37% | viability, T/C [35]: 0.4% | viability, T/C [36]: 1.84%

Nc1ccn(C2OC(CO)C(O)C2(F)F)c(=O)n1 (stereo not given) + Cc1cnc(CNC(=O)c2c(=O)c3ccc(N4CCCN(C)CC4)nc3n3c2sc2ccccc23)cn1
pIC50 (second compound 0.0316 µM): 7.31 | pIC50 (second compound 0.1 µM): > 7.50 | pIC50 (second compound 0.316 µM): > 7.50 | pIC50 (second compound 1 µM): > 7.50 | pIC50 (second compound 3.16 µM): > 7.50 | pIC50 (second compound 10 µM): > 7.50 | viability, T/C [1]: 62.7% | viability, T/C [2]: 29.1% | viability, T/C [3]: 22.4% | viability, T/C [4]: 17.9% | viability, T/C [5]: 17.5% | viability, T/C [6]: 12.2% | viability, T/C [7]: 50% | viability, T/C [8]: 31.6% | viability, T/C [9]: 24.5% | viability, T/C [10]: 18.6% | viability, T/C [11]: 16.1% | viability, T/C [12]: 14.5% | viability, T/C [13]: 45.5% | viability, T/C [14]: 29.5% | viability, T/C [15]: 21.3% | viability, T/C [16]: 17.3% | viability, T/C [17]: 17.8% | viability, T/C [18]: 14% | viability, T/C [19]: 40.4% | viability, T/C [20]: 28.7% | viability, T/C [21]: 20.1% | viability, T/C [22]: 17.2% | viability, T/C [23]: 14.6% | viability, T/C [24]: 14.3% | viability, T/C [25]: 34.8% | viability, T/C [26]: 27.1% | viability, T/C [27]: 19.8% | viability, T/C [28]: 17.1% | viability, T/C [29]: 17.8% | viability, T/C [30]: 14.5% | viability, T/C [31]: 8.05% | viability, T/C [32]: 9.51% | viability, T/C [33]: 2.05% | viability, T/C [34]: 0.66% | viability, T/C [35]: 1.03% | viability, T/C [36]: 2.03%

O=c1[nH]cc(F)c(=O)[nH]1 + Cc1cnc(CNC(=O)c2c(=O)c3ccc(N4CCCN(C)CC4)nc3n3c2sc2ccccc23)cn1
pIC50 (second compound 0.0316 µM): 5.58 | pIC50 (second compound 0.1 µM): 5.67 | pIC50 (second compound 0.316 µM): 5.82 | pIC50 (second compound 1 µM): > 7.50 | pIC50 (second compound 3.16 µM): > 7.50 | pIC50 (second compound 10 µM): > 7.50 | viability, T/C [1]: 86.5% | viability, T/C [2]: 86.4% | viability, T/C [3]: 99.3% | viability, T/C [4]: 75.6% | viability, T/C [5]: 46.1% | viability, T/C [6]: 34.8% | viability, T/C [7]: 73.6% | viability, T/C [8]: 64% | viability, T/C [9]: 82.7% | viability, T/C [10]: 67.2% | viability, T/C [11]: 40.8% | viability, T/C [12]: 32% | viability, T/C [13]: 51.1% | viability, T/C [14]: 61.2% | viability, T/C [15]: 55% | viability, T/C [16]: 55.2% | viability, T/C [17]: 40.5% | viability, T/C [18]: 31.2% | viability, T/C [19]: 43.4% | viability, T/C [20]: 43.5% | viability, T/C [21]: 51.5% | viability, T/C [22]: 40.9% | viability, T/C [23]: 35.8% | viability, T/C [24]: 29.4% | viability, T/C [25]: 38.2% | viability, T/C [26]: 36.2% | viability, T/C [27]: 38.7% | viability, T/C [28]: 36.5% | viability, T/C [29]: 36% | viability, T/C [30]: 30.3% | viability, T/C [31]: 18.6% | viability, T/C [32]: 9.86% | viability, T/C [33]: 31.9% | viability, T/C [34]: 31.5% | viability, T/C [35]: 11% | viability, T/C [36]: 2.12%
